Experimental data taken from patent publication US20110201679A1, “Use of Tocotrienols for Elevating IKBKAP Gene Expression and Treating Neurodegenerative Diseases or Disorders” (priority 2004, published 2011).
Entries after “also recorded” stand apart in the source; their conditions may differ.

Columns and labels:
Format in all cases: cell-based, human
[1] = tested on: IKAP transcript; experiment: Real-time RT-PCR analysis of IKAP RNA in FD-derived and normal fibroblast cells; conditions: for effect on cellular levels of IKAP transcripts: 48 h, 25 and 2.5 μg/ml
Method: In order to identify agents that could modulate the level of the wild type IKAP transcript produced in FD-derived cells, either by increasing transcription or modulating splicing, FD-derived fibroblast cells (GM00850) were treated with a variety of biological agents. RNA was isolated from the treated cells and was subjected to real-time RT-PCR analysis using primers specific for the wild-type IKAP transcript. More specifically, FD-derived fibroblast cells, seeded in 96-well plates at a concentration of 4000 cells/well for at least one day prior to treatment, were treated in triplicate for approximately 48 h unless noted otherwise. After treatment, the cells were washed once with PBS and then lysed in 50 μl of Cell-to-cDNA lysis buffer (Ambion) at 75° C. for 12 min. After one freeze-thaw cycle, 4 μl of lysate was used in 20 μl RT-PCRs. The Quantitect SYBR Green RT-PCR Kit (Qiagen) was used for real-time RT-PCR analysis of the relative quantities of the exon 20-containing transcript (wild-type), the exon 20-lacking transcript (mutant), as well as an exon 34-35-containing transcript that is unaffected by the FD-causing mutation (total). An ABI PRISM 7000 Sequence Detection System (Applied Biosystems), programmed as follows, was used to perform the real-time RT-PCR and analysis: 50° C. for 30 min and 95° C. for 15 min for one cycle, followed by 40 cycles of 94° C. for 15 s, 57-60° C. for 30 s, and 72° C. for 30 s. To present relative amounts of PCR product obtained, results were expressed as changes in the threshold cycle (ΔCT) compared to untreated cells. The threshold cycle refers to the PCR cycle at which the fluorescence of the PCR is increased to a calculated level above background. A change of 1.0 in CT, assuming 100% PCR efficiency, would reflect a twofold change in the starting amount of the RNA template that was amplified.
To control for the amount of RNA present in the samples, RT-PCR amplification of ribosomal 18S RNA was performed on all cell lysates. […] For this analysis, TaqMan Ribosomal RNA Control Reagents were used with the TaqMan EZ RT-PCR Kit (Applied Biosystems) as per the manufacturer's protocol.
To characterize the kinetics of the δ-tocotrienol-mediated accumulation of the IKAP transcript, FD-derived (GM00850 and GM04663) and normal (GM02912) fibroblast cells were exposed to 12.5 μg/ml of δ-tocotrienol for periods up to 48 h and the amount of the IKAP-encoding transcripts was determined by real-time RT-PCR, as described above.
To evaluate the IKAP mRNA-inducing ability of other molecules in the vitamin E family that are related to […], GM00850, GM04663, and GM02912 cells were incubated in the absence or presence of 25 and 2.5 μg/ml of either α, β, γ, or δ tocopherols or tocotrienols.
As described above, α, β, γ or δ tocopherol alone had no impact on IKAP mRNA levels when FD-derived or normal fibroblasts were treated for 48 hr. To determine if α-tocopherol in combination with tocotrienols would have an impact on IKAP mRNA levels, FD-derived GM00850 and GM04663 fibroblasts were treated for 48 hr with either 25 or 12.5 μg/mL of a mixture of α, β, γ and δ tocotrienols alone or in combination with 50 μg/mL of α-tocopherol.

[2] = tested on: IKAP transcript; experiment: Real-time RT-PCR analysis of wild-type IKAP RNA in LA1-55n cells; conditions: LA1-55n neuroblastoma cells, 48 h, varying concentrations
Method: FIG. 7. Real-time RT-PCR analysis of wild-type IKAP RNA in LA1-55n cells. cDNA was prepared from LA1-55n cells incubated for 48 h in the absence or presence of varying concentrations of δ-tocotrienol. The relative amounts of IKAP RNA present in these cells were determined by real-time RT-PCR. The results presented represent mean values obtained in three experiments, each done in triplicate.
The response of the neuroblastoma-derived LA1-55n cell line, which has characteristics of sympathetic neurons (J. L. Biedler, et al., “Human Neuroblastoma Cell Differentiation, in: D. Raghavan, et al., Principles and Practice of Genitourinary Oncology, Lippincott-Raven, pp. 1053-1061, (1997); D. L. Lazarova, et al., “A Neuronal-Specific RNA-Binding Protein, is a Putative Regulator of N-myc pre-mRNA Processing/Stability in Malignant Human Neuroblasts”, Oncogene 18: 2703-2710 (1999)), to treatment with […] was examined.

[3] = tested on: full-length IKAP; experiment: Western blot analysis of full-length IKAP in fibroblast cells; conditions: 12.5 μg/ml
Method: Western blot analysis was performed on cellular extracts prepared from δ-tocotrienol-treated FD-derived (GM00850 and GM04663) and normal (GM02912) fibroblast cells, using a monoclonal antibody generated against a peptide corresponding to exons 23-28 of IKAP that only recognize the full-length IKAP. Basically, cells treated for 48 h with 12.5 μg/ml of δ-tocotrienol were washed twice with PBS and lysed in 0.5 M Tris-HCl, pH 6.8, containing 1.4% SDS. Western blot analysis was performed essentially as described by B. Y. Rubin (Proc. Natl. Acad. Sci. USA 82: 6637-6641 (1985)). Essentially, equal amounts of protein fractionated on a 7% NuPAGE Tris-Acetate Gel (Invitrogen) were blotted onto nitrocellulose (Bio-Rad) and probed overnight with a monoclonal anti-body (BD Biosciences) directed against the carboxyl end (exons 23-28) of IKAP. The blot was then washed and probed with a goat anti-mouse antibody conjugated to alkaline phosphatase (Promega), followed by detection with Western Blue Substrate solution (Promega).

[4] = tested on: IKBKAP gene transcription; experiment: Nuclear run-on transcription assay in GM04663 cells; conditions: 48 h, 12.5 μg/ml, versus untreated cells
Method: The δ-tocotrienol-mediated accumulation of the IKAP-encoding transcripts was either the result of an elevation in the level of gene transcription or the stabilization of this RNA. To distinguish between these possibilities, nuclear run-on transcription assays were performed on cells incubated in either the presence or absence of δ-tocotrienol. Isolation of nuclei and transcription in the presence of [α-^32P]UTP (Perkin Elmer Life Sciences) were performed essentially as described by B. Y. Rubin (J. Biol. Chem. 266: 24245-24248 (1991)). Briefly, confluent monolayers of GM04663 cells in 175 cm^2 flasks were incubated for 48 h in the presence or absence of 12.5 μg/ml δ-tocotrienol. The cells were then lysed by Dounce homogenization and the resultant nuclei were incubated with 250 μCi [α-^32P]UTP. The radiolabeled RNA was treated with DNase, purified with Trizol LS reagent (Invitrogen), and then hybridized to 5 μg of plasmid containing either a full-length cDNA encoding IKAP or a cDNA encoding GAPDH that was immobilized on Nytran Super-Charge nylon membrane (Schleicher & Schuell) using a spot-blot apparatus. The amount of radiolabeled RNA bound was detected by autoradiography and then quantitated by densitometric scanning of the X-ray film.

[5] = GM00850, GM04663 and GM02912 cells

Cc1c(C)c2c(c(C)c1O)CC[C@@](C)(CCC[C@H](C)CCC[C@H](C)CCCC(C)C)O2 [α-tocopherol, α-Tocopherol]
effect on cellular levels of IKAP transcripts [1, 5]: no impact; also recorded: no effect
enhancement of tocotrienol-induced increase in IKAP mRNA ([1]; GM00850 and GM04663, 48 hr, 50 μg/mL α-tocopherol with 25 or 12.5 μg/mL mixture of α, β, γ and δ tocotrienols, versus tocotrienol-only treated cells): ≤ 40%
effect on IKAP mRNA levels, alone ([1]; GM00850 and GM04663 fibroblasts, 48 hr, 50 μg/mL α-tocopherol alone): no effect

CC(C)=CCC/C(C)=C/CC/C(C)=C/CC[C@]1(C)CCc2c(C)c(O)c(C)c(C)c2O1 [α-tocotrienol, α-Tocotrienol]
effect on cellular levels of IKAP transcripts [1, 5]: as much as sixfold

Cc1cc(O)c(C)c2c1O[C@](C)(CCC[C@H](C)CCC[C@H](C)CCCC(C)C)CC2 [β-tocopherol, β-Tocopherol]
effect on cellular levels of IKAP transcripts [1, 5]: no impact; also recorded: no effect

CC(C)=CCC/C(C)=C/CC/C(C)=C/CC[C@]1(C)CCc2c(C)c(O)cc(C)c2O1 [β-tocotrienol, β-Tocotrienol]
effect on cellular levels of IKAP transcripts [1, 5]: as much as sixfold

Cc1c(O)cc2c(c1C)O[C@](C)(CCC[C@H](C)CCC[C@H](C)CCCC(C)C)CC2 [γ-tocopherol, γ-Tocopherol]
effect on cellular levels of IKAP transcripts [1, 5]: no impact; also recorded: no effect

CC(C)=CCC/C(C)=C/CC/C(C)=C/CC[C@]1(C)CCc2cc(O)c(C)c(C)c2O1 [γ-tocotrienol, γ-Tocotrienol]
effect on cellular levels of IKAP transcripts [1, 5]: as much as sixfold

Cc1cc(O)cc2c1O[C@](C)(CCC[C@H](C)CCC[C@H](C)CCCC(C)C)CC2 [δ-tocopherol, δ-Tocopherol]
effect on cellular levels of IKAP transcripts [1, 5]: no impact; also recorded: no effect

CC(C)=CCC/C(C)=C/CC/C(C)=C/CC[C@]1(C)CCc2cc(O)cc(C)c2O1 [δ-tocotrienol, δ-Tocotrienol]
increase in IKAP transcript levels [2]: almost a twofold increase
level of wild-type IKAP transcript ([1]; FD-derived fibroblast GM00850, about 48 h, varying concentrations): concentration-dependent elevation
change in threshold cycle (ΔCT) relative to untreated cells ([1]; GM00850, 48 h, highest concentration tested): 2.5
increase in levels of truncated and wild-type IKAP transcripts ([1]; GM00850, 48 h, highest concentration tested, relative to untreated cells): as much as a sixfold increase
levels of IKAP-encoding transcripts over time ([1]; GM00850, GM04663 and GM02912 cells, 12.5 μg/ml, 24 h after start of treatment, versus untreated cells, accumulation continues through 48 h): significantly elevated levels
effect on cellular levels of IKAP transcripts [1, 5]: as much as sixfold
increase in amount of full-length IKAP produced ([3]; FD-derived fibroblasts GM00850 and GM04663, 48 h, on average): approximate two-fold increase
IKAP level as percentage of the level present in untreated normal (GM02912) cells ([3]; treated FD-derived cells GM00850 and GM04663, 48 h, untreated FD cells 26-30%): 48-65%
increase in IKBKAP gene transcription [4]: approximately 3.5 fold
